Experimental findings from ChEMBL document CHEMBL1140941 (J Med Chem, 2009) are described below.

Data set [1] concerns the target Androgen receptor (Homo sapiens, UniProt P10275). Put plainly: Antagonist activity at gal-AR expressed in african green monkey CV1 cells co-expressing MH100 with GRIP1 co-factor by luciferase reporter gene assay. The format is functional, cell-based, CV-1. A general note: In a reporter assay the amount or activity of a reporter protein is the signal.
Data set [2] concerns the target T1, Peroxisome proliferator-activated receptor delta (Homo sapiens) (UniProt Q03181).
T1 sequence (whole entry): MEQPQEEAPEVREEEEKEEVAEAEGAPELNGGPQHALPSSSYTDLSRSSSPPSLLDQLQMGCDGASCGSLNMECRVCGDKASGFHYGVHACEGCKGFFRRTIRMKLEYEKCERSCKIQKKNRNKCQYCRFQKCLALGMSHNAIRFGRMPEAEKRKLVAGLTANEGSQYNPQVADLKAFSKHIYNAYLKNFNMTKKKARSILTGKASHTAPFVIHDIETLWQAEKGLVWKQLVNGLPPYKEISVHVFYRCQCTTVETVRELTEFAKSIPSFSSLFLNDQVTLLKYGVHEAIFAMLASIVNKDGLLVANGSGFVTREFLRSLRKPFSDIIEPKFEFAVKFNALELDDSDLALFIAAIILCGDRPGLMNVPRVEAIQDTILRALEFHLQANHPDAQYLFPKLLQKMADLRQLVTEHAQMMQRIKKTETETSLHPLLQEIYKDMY
The experiment in a line: Agonist activity at PPARdelta expressed in african green monkey CV1 cells co-expressing MH100 by luciferase reporter gene assay. The format is functional, cell-based. To be noted: CV-1.

Data set [3] is described as follows: Tmax in CD rat at 3 mg/kg, iv. Further details: dose 3 mg/kg, route intravenous. The settings on record: in vivo. Format: ADME, organism-based.
Data set [4] deals with Estrogen receptor beta (Homo sapiens) (UniProt Q92731). The experiment in a line: Agonist activity at gal-ERbeta expressed in african green monkey CV1 cells co-expressing MH100 up to 10 uM by luciferase reporter gene assay relative to control. The format is functional, cell-based. To be noted: CV-1.
Chain of Estrogen receptor beta (Homo sapiens) (Q92731 whole entry): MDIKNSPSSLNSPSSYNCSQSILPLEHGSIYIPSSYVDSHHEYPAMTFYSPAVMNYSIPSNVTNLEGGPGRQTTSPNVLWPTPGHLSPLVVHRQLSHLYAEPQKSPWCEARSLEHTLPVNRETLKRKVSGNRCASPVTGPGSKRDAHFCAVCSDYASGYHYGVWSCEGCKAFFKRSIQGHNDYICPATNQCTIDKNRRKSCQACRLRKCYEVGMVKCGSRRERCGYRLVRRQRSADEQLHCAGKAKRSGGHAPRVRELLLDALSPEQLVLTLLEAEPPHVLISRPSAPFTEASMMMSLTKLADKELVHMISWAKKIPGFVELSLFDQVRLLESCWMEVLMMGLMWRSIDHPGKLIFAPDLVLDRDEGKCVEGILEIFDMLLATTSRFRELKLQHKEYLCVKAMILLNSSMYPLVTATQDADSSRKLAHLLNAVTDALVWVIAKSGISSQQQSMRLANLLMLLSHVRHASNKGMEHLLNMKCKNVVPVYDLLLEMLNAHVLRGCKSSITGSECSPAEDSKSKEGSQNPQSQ

Calls of active or inactive are those of the source. The calls are words filed in the database; no cut-off is given here.

As usually defined, the IC50 is the concentration needed to halve the response being measured. As a reminder, the Tmax is the time at which the peak concentration occurs.

Chain of Androgen receptor (P10275 whole entry): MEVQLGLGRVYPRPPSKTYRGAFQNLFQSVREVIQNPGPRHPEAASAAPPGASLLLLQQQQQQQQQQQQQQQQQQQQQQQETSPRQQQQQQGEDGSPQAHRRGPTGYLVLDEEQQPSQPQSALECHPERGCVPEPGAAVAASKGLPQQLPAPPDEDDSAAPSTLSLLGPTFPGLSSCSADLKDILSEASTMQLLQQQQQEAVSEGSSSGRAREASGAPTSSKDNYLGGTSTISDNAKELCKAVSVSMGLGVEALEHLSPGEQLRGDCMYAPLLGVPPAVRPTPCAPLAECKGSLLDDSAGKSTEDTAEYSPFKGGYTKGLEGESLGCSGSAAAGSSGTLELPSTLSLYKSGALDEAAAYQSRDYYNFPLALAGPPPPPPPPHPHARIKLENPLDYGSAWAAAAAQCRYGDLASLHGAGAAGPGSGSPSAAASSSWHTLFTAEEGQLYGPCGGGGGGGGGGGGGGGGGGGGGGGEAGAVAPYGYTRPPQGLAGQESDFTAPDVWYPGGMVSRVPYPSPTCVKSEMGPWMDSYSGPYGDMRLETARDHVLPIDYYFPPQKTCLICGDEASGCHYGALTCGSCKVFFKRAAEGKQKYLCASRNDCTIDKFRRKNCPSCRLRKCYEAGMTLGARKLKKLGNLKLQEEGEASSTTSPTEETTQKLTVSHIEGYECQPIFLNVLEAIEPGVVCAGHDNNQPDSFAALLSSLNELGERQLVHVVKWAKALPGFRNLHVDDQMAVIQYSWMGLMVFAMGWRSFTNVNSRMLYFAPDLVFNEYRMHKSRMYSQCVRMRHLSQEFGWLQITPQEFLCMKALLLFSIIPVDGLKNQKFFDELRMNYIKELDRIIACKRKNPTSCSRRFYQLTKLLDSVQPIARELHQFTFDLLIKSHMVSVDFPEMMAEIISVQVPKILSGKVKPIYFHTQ

Take `CC(C)OC(=O)C1=CN(C(=O)c2ccc(F)c(F)c2)CC(C)(C)c2c1[nH]c1ccccc21` [TUROFEXORATE ISOPROPYL]: the IC50 in data set [1] was found to be 10 µM. Also, the result in data set [2] and in data set [4] was inactive. Besides, the Tmax in data set [3] amounted to 1.2 min.
